Test results taken from patent US9145392B2, “Imidazole amines as modulators of kinase activity” (Merck Patent GmbH, priority 2011, dated 2015).
Read-outs that look alike come from different tables or passages of the source.

Tests used:
[1] = molecular target: P70S6K (T412E mutant) (Homo sapiens (Human), UniProt P23443, T412E); test: P70S6K enzyme assay; type: biochemical
Outline: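 Read-out is the substrate/phosphopeptide ratio from mobility-shift electrophoresis on a LabChip 3000.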

[2] = molecular target: His-AKT (Full Length) (Homo sapiens (Human), UniProt P31749); test: AKT enzyme assay; type: biochemical
His-AKT (Full Length), sequence (P31749 whole entry): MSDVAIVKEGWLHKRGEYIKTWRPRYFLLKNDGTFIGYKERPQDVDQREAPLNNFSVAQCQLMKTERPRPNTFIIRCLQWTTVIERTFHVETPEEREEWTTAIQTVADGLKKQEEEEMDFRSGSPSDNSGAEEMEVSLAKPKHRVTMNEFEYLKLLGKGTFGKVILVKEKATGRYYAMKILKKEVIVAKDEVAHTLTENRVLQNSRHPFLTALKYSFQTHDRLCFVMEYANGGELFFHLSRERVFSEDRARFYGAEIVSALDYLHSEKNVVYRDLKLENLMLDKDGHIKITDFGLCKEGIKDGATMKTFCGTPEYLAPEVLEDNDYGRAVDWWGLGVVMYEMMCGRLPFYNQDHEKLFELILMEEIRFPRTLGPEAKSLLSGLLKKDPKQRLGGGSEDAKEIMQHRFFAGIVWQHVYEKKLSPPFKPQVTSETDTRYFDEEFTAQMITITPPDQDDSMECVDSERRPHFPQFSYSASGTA

P70S6K (T412E mutant), sequence (P23443 whole entry T412E): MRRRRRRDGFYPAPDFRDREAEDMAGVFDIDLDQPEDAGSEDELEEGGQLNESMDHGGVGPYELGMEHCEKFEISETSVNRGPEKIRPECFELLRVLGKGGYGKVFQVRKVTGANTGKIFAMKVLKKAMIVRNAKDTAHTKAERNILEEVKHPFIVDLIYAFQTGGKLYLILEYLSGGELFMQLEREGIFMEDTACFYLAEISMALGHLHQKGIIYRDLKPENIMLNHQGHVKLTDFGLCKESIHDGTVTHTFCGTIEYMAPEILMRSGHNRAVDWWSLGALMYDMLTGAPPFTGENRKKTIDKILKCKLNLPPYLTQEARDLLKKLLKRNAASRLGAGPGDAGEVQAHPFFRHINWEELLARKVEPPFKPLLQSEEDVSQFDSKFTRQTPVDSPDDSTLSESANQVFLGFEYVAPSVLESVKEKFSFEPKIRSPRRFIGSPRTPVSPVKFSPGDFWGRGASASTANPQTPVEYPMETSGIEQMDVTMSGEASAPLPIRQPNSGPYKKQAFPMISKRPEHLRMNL

In the case of `NCCn1cc(-c2ccc(F)c(C(F)(F)F)c2)nc1C1CCN(c2ncnc(N)c2C(N)=O)CC1` [Compound 159, 4-amino-6-(4-(1-(2-aminoethyl)-4-(4-fluoro-3-(trifluoromethyl)phenyl)-1H-imidazol-2-yl)piperidin-1-yl)pyrimidine-5-carboxamide], the IC50 ([1]; read-out: IC50 p70S6K) is reported as 1.5 nM and the IC50 ([2]; read-out: IC50 AKT) is reported as 15 nM.

Work on `Cc1cc(-c2cn(CCO)c(C3CCN(c4ncnc(N)c4-c4cn[nH]c4)CC3)n2)ccc1F` [Compound 160, 2-(2-(1-(6-amino-5-(1H-pyrazol-4-yl)pyrimidin-4-yl)piperidin-4-yl)-4-(4-fluoro-3-methylphenyl)-1H-imidazol-1-yl)ethanol] yielded an IC50 ([1]; read-out: IC50 p70S6K) of 6.7 nM and an IC50 ([2]; read-out: IC50 AKT) of 670 nM.

Work on `Cc1cc(-c2cn(CCNC3CC3)c(C3CCN(c4ncnc(N)c4-c4cn[nH]c4)CC3)n2)ccc1F` [Compound 161, 6-(4-(1-(2-(cyclooropylamino)ethyl)-4-(4-fluoro-3-methylphenyl)-1H-imidazol-2-yl)piperidin-1-yl)-5-(1H-pyrazol-4-yl)pyrimidin-4-amine] yielded an IC50 ([1]; read-out: IC50 (p70S6K enzyme)) of 12.9 nM, an IC50 ([1]; read-out: IC50 p70S6K) of 12.9 nM and an IC50 ([2]; read-out: IC50 (AKT enzyme)) of 150 nM. For the same compound, the IC50 ([2]; read-out: IC50 AKT) was 150 nM.

For `CNCCn1cc(-c2ccc(F)c(C)c2)nc1C1CCN(c2ncnc(N)c2-c2cn[nH]c2)CC1` [Compound 162, 6-(4-(4-(4-fluoro-3-methylphenyl)-1-(2-(methylamino)ethyl)-1H-imidazol-2-yl)piperidin-1-yl)-5-(1H-pyrazol-4-yl)pyrimidin-4-amine], the IC50 ([1]; read-out: IC50 p70S6K) was 5.9 nM and the IC50 ([2]; read-out: IC50 AKT) was 21 nM.

Compound `Cc1cc(-c2cn(CCN(C)C)c(C3CCN(c4ncnc(N)c4-c4cn[nH]c4)CC3)n2)ccc1F` [Compound 163, 6-(4-(1-(2-(dimethylamino)ethyl)-4-(4-fluoro-3-methylphenyl)-1H-imidazol-2-yl)piperidin-1-yl)-5-(1H-pyrazol-4-yl)pyrimidin-4-amine] has an IC50 ([1]; read-out: IC50 p70S6K) of 0.73 nM and an IC50 ([2]; read-out: IC50 AKT) of 4.8 nM.

With `Cc1cc(-c2cn(CCN3CCC3)c(C3CCN(c4ncnc(N)c4-c4cn[nH]c4)CC3)n2)ccc1F` [Compound 164, 6-(4-(1-(2-(azetidin-1-yl)ethyl)-4-(4-fluoro-3-methylphenyl)-1H-imidazol-2-yl)piperidin-1-yl)-5-(1H-pyrazol-4-yl)pyrimidin-4-amine] the IC50 ([1]; read-out: IC50 p70S6K) was 4.4 nM and the IC50 ([2]; read-out: IC50 AKT) was 5.5 nM.

In the case of `Cc1cc(-c2cn(CCNC(C)(C)C)c(C3CCN(c4ncnc(N)c4-c4cn[nH]c4)CC3)n2)ccc1F` [Compound 165, 6-(4-(1-(2-(tert-butylamino)ethyl)-4-(4-fluoro-3-methylphenyl)-1H-imidazol-2-yl)piperidin-1-yl)-5-(1H-pyrazol-4-yl)pyrimidin-4-amine], the IC50 ([1]; read-out: IC50 p70S6K) is reported as 2.8 nM and the IC50 ([2]; read-out: IC50 AKT) is reported as 5.5 nM.

`CNCCn1cc(-c2ccnc(C(F)(F)F)c2)nc1C1CCN(c2ncnc(N)c2Br)CC1` [Compound 166, 5-bromo-6-(4-(1-(2-(methylamino)ethyl)-4-(2-(trifluoromethyl)pyridin-4-yl)-1H-imidazol-2-yl)piperidin-1-yl)pyrimidin-4-amine] showed an IC50 ([1]; read-out: IC50 p70S6K) of 1.3 nM and an IC50 ([2]; read-out: IC50 AKT) of 1.5 nM.

With `CNCCn1cc(-c2ccnc(C(F)(F)F)c2)nc1C1CCN(c2cc(N)ncn2)CC1` [Compound 167, 6-(4-(1-(2-(methylamino)ethyl)-4-(2-(trifluoromethyl)pyridin-4-yl)-1H-imidazol-2-yl)piperidin-1-yl)pyrimidin-4-amine] the IC50 ([1]; read-out: IC50 p70S6K) was 130 nM and the IC50 ([2]; read-out: IC50 AKT) was > 1000 nM.

`Nc1ncnc(N2CCC(c3nc(-c4ccnc(C(F)(F)F)c4)cn3CCN3CCC3)CC2)c1-c1cnoc1` [Compound 168, 6-(4-(1-(2-(azetidin-1-yl)ethyl)-4-(2-(trifluoromethyl)pyridin-4-yl)-1H-imidazol-2-yl)piperidin-1-yl)-5-(isoxazol-4-yl)pyrimidin-4-amine] gave an IC50 ([1]; read-out: IC50 p70S6K) of 2.9 nM and an IC50 ([2]; read-out: IC50 AKT) of 2.7 nM.

Work on `CNCCn1cc(-c2ccnc(C(F)(F)F)c2)nc1C1CCN(c2ncnc(N)c2C#N)CC1` [Compound 169, 4-amino-6-(4-(1-(2-(methylamino)ethyl)-4-(2-(trifluoromethyl)pyridin-4-yl)-1H-imidazol-2-yl)piperidin-1-yl)pyrimidine-5-carbonitrile] yielded an IC50 ([1]; read-out: IC50 p70S6K) of 1.3 nM and an IC50 ([2]; read-out: IC50 AKT) of 1.7 nM.

Work on `CNCCn1cc(-c2ccnc(C(F)(F)F)c2)nc1C1CCN(c2ncnc(N)c2C2C=NOC2)CC1` (stereo not shown) [Compound 170, 5-(4,5-dihydroisoxazol-4-yl)-6-(4-(1-(2-(methylamino)ethyl)-4-(2-(trifluoromethyl)pyridin-4-yl)-1H-imidazol-2-yl)piperidin-1-yl)pyrimidin-4-amine] yielded an IC50 ([1]; read-out: IC50 p70S6K) of 170 nM and an IC50 ([2]; read-out: IC50 AKT) of 120 nM.

With `CNCCn1cc(-c2ccnc(C(F)(F)F)c2)nc1C1CCN(c2ncnc(N)c2Cl)CC1` [Compound 172, 5-chloro-6-(4-(1-(2-(methylamino)ethyl)-4-(2-(trifluoromethyl)pyridin-4-yl)-1H-imidazol-2-yl)piperidin-1-yl)pyrimidin-4-amine] the IC50 ([1]; read-out: IC50 p70S6K) was 2 nM and the IC50 ([2]; read-out: IC50 AKT) was 1.4 nM.

Compound `Nc1ncnc(N2CCC(c3nc(-c4ccnc(C(F)(F)F)c4)cn3CCNC3CC3)CC2)c1Cl` [Compound 173, 5-chloro-6-(4-(1-(2-(cyclopropylamino)ethyl)-4-(2-(trifluoromethyl)pyridin-4-yl)-1H-imidazol-2-yl)piperidin-1-yl)pyrimidin-4-amine] has an IC50 ([1]; read-out: IC50 p70S6K) of 2.8 nM and an IC50 ([2]; read-out: IC50 AKT) of 3.6 nM.

`CCNCCn1cc(-c2ccc(F)c(C(F)(F)F)c2)nc1C1CCN(c2ncnc(N)c2OC(C)C)CC1` [Compound 174, 6-(4-(1-(2-(ethylamino)ethyl)-4-(4-fluoro-3-(trifluoromethyl)phenyl)-1H-imidazol-2-yl)piperidin-1-yl)-5-isopropoxypyrimidin-4-amine] gave an IC50 ([1]; read-out: IC50 p70S6K) of 0.44 nM and an IC50 ([2]; read-out: IC50 AKT) of 0.52 nM.

In the case of `CC(C)Oc1c(N)ncnc1N1CCC(c2nc(-c3ccc(F)c(C(F)(F)F)c3)cn2CC2CNC2)CC1` [Compound 175, 6-(4-(1-(azetidin-3-ylmethyl)-4-(4-fluoro-3-(trifluoromethyl)phenyl)-1H-imidazol-2-yl)piperidin-1-yl)-5-isopropoxypyrimidin-4-amine], the IC50 ([1]; read-out: IC50 p70S6K) is reported as 5.9 nM and the IC50 ([2]; read-out: IC50 AKT) is reported as 4.5 nM.

`CCOc1c(N)ncnc1N1CCC(c2nc(-c3ccc(F)c(C(F)(F)F)c3)cn2CC2CNC2)CC1` [Compound 176, 6-(4-(1-(azetidin-3-ylmethyl)-4-(4-fluoro-3-(trifluoromethyl)phenyl)-1H-imidazol-2-yl)piperidin-1-yl)-5-ethoxypyrimidin-4-amine] was tested, and the IC50 ([1]; read-out: IC50 p70S6K) was 5.5 nM and the IC50 ([2]; read-out: IC50 AKT) was 5 nM.

For `Cc1cc(-c2cn(CCN3CCC3)c(C3CCN(c4ncnc(N)c4OC(C)C)CC3)n2)ccc1F` [Compound 178, 6-(4-(1-(2-(azetidin-1-yl)ethyl)-4-(4-fluoro-3-methylphenyl)-1H-imidazol-2-yl)piperidin-1-yl)-5-isopropoxypyrimidin-4-amine], the IC50 ([1]; read-out: IC50 p70S6K) was 3.9 nM and the IC50 ([2]; read-out: IC50 AKT) was 2.7 nM.

`CCc1c(N)ncnc1N1CCC(c2nc(-c3ccnc(C(C)C)c3)cn2CCN2CCC2)CC1` [Compound 179, 6-(4-(1-(2-(azetidin-1-yl)ethyl)-4-(2-isopropylpyridin-4-yl)-1H-imidazol-2-yl)piperidin-1-yl)-5-ethylpyrimidin-4-amine] showed an IC50 ([1]; read-out: IC50 p70S6K) of 1.9 nM and an IC50 ([2]; read-out: IC50 AKT) of 4.2 nM.

In the case of `CC(C)c1cc(-c2cn(CCN3CCC3)c(C3CCN(c4ncnc(N)c4Cl)CC3)n2)ccn1` [Compound 180, 6-(4-(1-(2-(azetidin-1-yl)ethyl)-4-(2-isopropylpyridin-4-yl)-1H-imidazol-2-yl)piperidin-1-yl)-5-chloropyrimidin-4-amine], the IC50 ([1]; read-out: IC50 p70S6K) is reported as 1.1 nM and the IC50 ([2]; read-out: IC50 AKT) is reported as 2.4 nM.

Work on `CC(C)c1cc(-c2cn(CCN3CCC3)c(C3CCN(c4ncnc(N)c4Br)CC3)n2)ccn1` [Compound 181, 6-(4-(1-(2-(azetidin-1-yl)ethyl)-4-(2-isopropylpyridin-4-yl)-1H-imidazol-2-yl)piperidin-1-yl)-5-bromopyrimidin-4-amine] yielded an IC50 ([1]; read-out: IC50 p70S6K) of 0.11 nM and an IC50 ([2]; read-out: IC50 AKT) of 0.15 nM.

In the case of `C=Cc1c(N)ncnc1N1CCC(c2nc(-c3ccnc(C(C)C)c3)cn2CCN2CCC2)CC1` [Compound 182, 6-(4-(1-(2-(azetidin-1-yl)ethyl)-4-(2-isopropylpyridin-4-yl)-1H-imidazol-2-yl)piperidin-1-yl)-5-vinylpyrimidin-4-amine], the IC50 ([1]; read-out: IC50 p70S6K) is reported as 0.7 nM and the IC50 ([2]; read-out: IC50 AKT) is reported as 2.2 nM.

Compound `C=Cc1c(N)ncnc1N1CCC(c2nc(-c3ccc(F)c(C(F)(F)F)c3)cn2CC2CNC2)CC1` [Compound 183, 6-(4-(1-(azetidin-3-ylmethyl)-4-(4-fluoro-3-(trifluoromethyl)phenyl)-1H-imidazol-2-yl)piperidin-1-yl)-5-vinylpyrimidin-4-amine] has an IC50 ([1]; read-out: IC50 p70S6K) of 12 nM and an IC50 ([2]; read-out: IC50 AKT) of 74 nM.

For `COc1c(N)ncnc1N1CCC(c2nc(-c3ccc(F)c(C)c3)cn2CC2CNC2)CC1` [Compound 184, 6-(4-(1-(azetidin-3-ylmethyl)-4-(4-fluoro-3-methylphenyl)-1H-imidazol-2-yl)piperidin-1-yl)-5-methoxypyrimidin-4-amine], the IC50 ([1]; read-out: IC50 p70S6K) was 0.26 nM and the IC50 ([2]; read-out: IC50 AKT) was 2.3 nM.

`CCOc1c(N)ncnc1N1CCC(c2nc(-c3ccc(F)c(C)c3)cn2CC2CNC2)CC1` [Compound 185, 6-(4-(1-(azetidin-3-ylmethyl)-4-(4-fluoro-3-methylphenyl)-1H-imidazol-2-yl)piperidin-1-yl)-5-ethoxypyrimidin-4-amine] showed an IC50 ([1]; read-out: IC50 p70S6K) of 2.2 nM and an IC50 ([2]; read-out: IC50 AKT) of 6.6 nM.

Work on `Cc1cc(-c2cn(CC3CNC3)c(C3CCN(c4ncnc(N)c4OCC(F)(F)F)CC3)n2)ccc1F` [Compound 186, 6-(4-(1-(azetidin-3-ylmethyl)-4-(4-fluoro-3-methylphenyl)-1H-imidazol-2-yl)piperidin-1-yl)-5-(2,2,2-trifluoroethoxy)pyrimidin-4-amine] yielded an IC50 ([1]; read-out: IC50 p70S6K) of 2 nM and an IC50 ([2]; read-out: IC50 AKT) of 7.1 nM.

For `Cc1cc(-c2cn(CC3CNC3)c(C3CCN(c4ncnc(N)c4OC(C)C)CC3)n2)ccc1F` [Compound 187, 6-(4-(1-(azetidin-3-ylmethyl)-4-(4-fluoro-3-methylphenyl)-1H-imidazol-2-yl)piperidin-1-yl)-5-isopropoxypyrimidin-4-amine], the IC50 ([1]; read-out: IC50 p70S6K) was 3.4 nM and the IC50 ([2]; read-out: IC50 AKT) was 6.4 nM.

For `CCc1c(N)ncnc1N1CCC(c2nc(-c3ccc(F)c(C)c3)cn2CC2CNC2)CC1` [Compound 188, 6-(4-(1-(azetidin-3-ylmethyl)-4-(4-fluoro-3-methylphenyl)-1H-imidazol-2-yl)piperidin-1-yl)-5-ethylpyrimidin-4-amine], the IC50 ([1]; read-out: IC50 p70S6K) was 2.1 nM and the IC50 ([2]; read-out: IC50 AKT) was 2.3 nM.
